Key:
brain [1] = assay: Maturation of TTM-002 capsid, NGS enrichment in brain of CD-1 Outbred mice; format: in vivo; settings: NGS fold-enrichment in the brain of CD-1 Outbred mice; intravenous, 1.0×10^12 VG/dose, 14 days; RNA; relative to non-matured TTM-002 control
From the text: This Example describes maturation of the TTM-001 (SEQ ID NO: 981 (amino acid) and 983 (DNA), comprising SEQ ID NO: 941) and TTM-002 (SEQ ID NO: 982 (amino acid) and 984 (DNA), comprising SEQ ID NO: 2) capsid variants to further enhance their transduction and biodistribution in the central nervous system and evolve the AAV capsid variants to provide further cross-species compatibility. Two approaches were used to mature the TTM-001 and TTM-002 capsid sequences in order to randomize and mutate within and around the peptide insert comprised within loop IV of the capsid variant. […] In the first maturation approach, sets of three contiguous amino acids were randomized across the mutagenesis region in the TTM-001 and TTM-002 sequences, which spanned from position 450 to position 466, numbered according to SEQ ID NO: 981 and 982. In the second maturation approach, mutagenic primers were used to introduce point mutations at a low frequency, scattered across the mutagenesis region in the TTM-001 and TTM-002 sequences ranging from position 449 to position 466, numbered according to SEQ ID NO: 981 and 982. AAV capsid variants arising from each maturation approach for TTM-001 were pooled together and AAV capsid variants arising from each maturation approach for TTM-002 were also pooled together, for subsequent testing and characterization in mice.
The library of pooled matured AAV capsid variants generated from TTM-001 or library of pooled matured AAV capsid variants generated from the TTM-002 matured AAV capsid variant each were intravenously injected into the tail vein of three female CD-1 Outbred mice (Charles River) at a dose of 1.0×10^12 VG/dose. After 14-days in life, the brains of the mice were isolated and RNA was extracted. Following RNA recovery and RT-PCR amplification, a systematic NGS enrichment analysis was performed to calculate the fold enrichment ratio relative to the corresponding TTM-001 or TTM-002 control, and the peptides comprised within the variants were identified. The data for the TTM-001 matured capsid variants is provided in Table 13 and the data for the TTM-002 matured capsid variants is provided in Table 14.

brain [2] = assay: Matured TTM-001 and TTM-002 variants, NGS enrichment in mouse brain; format: in vivo, mice; settings: relative to AAV9 control
[3] = system: brains, heart, liver, muscle, and DRG of the NHPs; assay: Maturation of TTM-001 and TTM-002 capsids, NGS enrichment in NHP tissues; format: in vivo; settings: relative to AAV9 control
In short: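 Variants carry mutations within and flanking the loop IV peptide insert: positions 450–466 were triplet-randomized, while positions 449–466 received low-frequency point mutations. The combined pool went into two NHPs, and each peptide was scored by NGS enrichment ratio against AAV9.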

[4] = NGS fold-enrichment, brain of mice
[5] = NGS fold-enrichment, DRG of NHPs
[6] = NGS fold-enrichment, RNA, brain of NHPs
[7] = NGS fold-enrichment, heart of NHPs
[8] = NGS fold-enrichment, liver DNA of NHPs
[9] = NGS fold-enrichment, liver RNA of NHPs
[10] = NGS fold-enrichment, muscle of NHPs
[11] = NGS fold-enrichment, mouse brain
[12] = NGS fold-enrichment of RNA, NHP brain
[13] = NGS fold-enrichment, NHP liver DNA
[14] = NGS fold-enrichment, NHP liver RNA
[15] = NGS fold-enrichment, NHP muscle

Sequence	Fold enrichment over TTM-002 (brain [1])	also measured
KADMGHDSPHKSGQNQQT	2.48	–
KADQGHDSPHKSGQNQQT	2.07	–
KADWGHDSPHKSGQNQQT	2.32	–
KADYGHDSPHKSGQNQQT	2.40	–
KAEIGHDSPHKSGQNQQT	2.17	Fold Enrichment relative to AAV9, Brain (Mouse) (brain [2]; mouse brain): 27.173 fold; Fold Enrichment relative to AAV9, Brain (NHP) ([3]; NGS fold-enrichment of matured AAV capsid variants, NHP brain, RNA): 63.249 fold; Fold Enrichment relative to AAV9, DRG (NHP) ([3]; NHP DRG): 0.000 fold; Fold Enrichment relative to AAV9, Heart (NHP) ([3]; NHP heart): 0.000 fold; Fold Enrichment relative to AAV9, Liver DNA (NHP) ([3]; NHP liver, DNA): 0.024 fold; Fold Enrichment relative to AAV9, Liver RNA (NHP) ([3]; NHP liver, RNA): 0.060 fold; Fold Enrichment relative to AAV9, Muscle (NHP) ([3]; NHP muscle): 0.000 fold
KAEQGHDSPHKSGQNQQT	2.14	–
KAEVGHDSPHKSGQNQQT	2.15	–
KAEWGHDSPHKSGQNQQT	2.69	–
KANNGQDSPHKSGQNQQT	2.67	–
KATNGHDSPHKSGLNQQT	2.10	–
KCEIGHDSPHKSGQNQQT	2.10	–
KCEWGHDSPHKSGQNQQT	2.68	–
KCEYGHDSPHKSGQNQQT	2.36	–
KDIMGHDSPHKSGQNQQT	2.23	–
KFEQGHDSPHKSGQNQQT	2.22	–
KHDWGHDSPHKSGQNQQT	2.00	–
KIEGGHDSPHKSGQNQQT	2.00	–
KIEIGHDSPHKSGQNQQT	2.30	–
KIEMGHDSPHKSGQNQQT	2.05	–
KIENGHDSPHKSGQNQQT	2.19	–
KIESGHDSPHKSGQNQQT	2.11	–
KIETGHDSPHKSGQNQQT	2.38	–
KIEVGHDSPHKSGQNQQT	2.16	–
KIEYGHDSPHKSGQNQQT	2.41	–
KIINGHDSPHKSGLTQQT	2.17	–
KIPEGHDSPHKSGQNQQT	2.54	–

Sequence	Fold enrichment over TTM-002 (brain [1])	also measured
KISNGHDSPHKSAQNQQT	2.03	–
KLEWGHDSPHKSGQNQQT	2.14	–
KLEYGHDSPHKSGQNQQT	2.33	–
KLPEGHDSPHKSGQNQQT	2.19	–
KMDAGHDSPHKSGQNQQT	2.15	–
KMDGGHDSPHKSGQNQQT	2.09	–
KMEAGHDSPHKSGQNQQT	2.12	–
KMEFGHDSPHKSGQNQQT	2.21	–
KMEGGHDSPHKSGQNQQT	2.72	–
KMEIGHDSPHKSGQNQQT	2.34	–
KMELGHDSPHKSGQNQQT	2.13	–
KMEMGHDSPHKSGQNQQT	2.16	–
KMESGHDSPHKSGQNQQT	2.18	–
KMETGHDSPHKSGQNQQT	2.12	–
KMEVGHDSPHKSGQNQQT	2.11	–
KMEWGHDSPHKSGQNQQT	2.38	–
KMEYGHDSPHKSGQNQQT	2.71	–
KMPEGHDSPHKSGQNQQT	3.18	–
KNMNGHDSPHKSGQNTHS	2.06	–
KQEVGHDSPHKSGQNQQT	2.07	–
KQQQGHDSPHKSGQNQQT	2.01	–
KRINGHDSPHKSGQKQQN	2.34	–
KTAKDHDSPHKSGQNQQT	2.11	–
KTANEHDSPHKSGQNQQT	2.05	–
KTGNGHDSPHKSGQYQQT	2.03	–
KTIKDNDSPHKSGQNQQT	2.27	–

Sequence	Fold enrichment over TTM-002 (brain [1])	also measured
KTINGHDSPHINGQKQQT (KTINGHDSPHTNGQKQQT)	2.38	–
KTINGHDSPHKRGQHRQT	4.20	–
KTINGHDSPHKSAQNQWT	2.07	–
KTINGHDSPHKSGRRRQT	2.04	–
KTINGHDSPHKSRQNDQT	2.01	–
KTINGHDSPHLCGQNQQT	2.59	–
KTINGHDSPHLLWQNQQT	2.12	–
KTINGHDSPHVIDQNQQT (KTINGHDSPHVTDQNQQT)	5.20	–
KTINGHDSPHWLLQNQQT	2.37	–
KTINGHESPHKSAQNHQT	2.07	–
KTINGHLSPHYFGQNQQT	2.41	–
KTINGHLSPHYYGQNQQT	2.13	–
KTINGHPSPHYLGQNQQT	2.14	–
KTINGHSSPHYFGQNQQT	2.05	–
KTINGHYSPHLFGQNQQT	2.02	–
KTINGNYSPHKIGQNQQT	2.02	–
KTINRQRSPHKSGQNQQT	2.11	–
KTPQDHDSPHKSGQNQQT	2.00	–
KTPWEHDSPHKSGQNQQT	2.05	–
KTSNGDDSPHKSGRNQQT	2.17	–
KVEWGHDSPHKSGQNQQT	2.15	–
KVEYGHDSPHKSGQNQQT (peptide inserted in AAV capsid)	2.17	–
NTIYGSGSPHSKAQNQQT (peptide inserted in AAV capsid)	–	Fold Enrichment relative to AAV9, Brain (Mouse) (brain [2]; [4]): 59.707 fold; Fold Enrichment relative to AAV9, DRG (NHP) [3, 5]: 1.739 fold; Fold Enrichment relative to AAV9, Brain (NHP) [3, 6]: 71.267 fold; Fold Enrichment relative to AAV9, Heart (NHP) [3, 7]: 0.000 fold; Fold Enrichment relative to AAV9, Liver DNA (NHP) [3, 8]: 0.209 fold; Fold Enrichment relative to AAV9, Liver RNA (NHP) [3, 9]: 0.000 fold; Fold Enrichment relative to AAV9, Muscle (NHP) [3, 10]: 273.69 fold
TTINGHDSPHKSGQNQQT (peptide inserted in AAV capsid)	–	Fold Enrichment relative to AAV9, Brain (Mouse) (brain [2]; [11]): 14.788 fold; Fold Enrichment relative to AAV9, Brain (NHP) [3, 12]: 108.963 fold; Fold Enrichment relative to AAV9, DRG (NHP) ([3]; NGS fold-enrichment, NHP DRG): 1.512 fold; Fold Enrichment relative to AAV9, Heart (NHP) ([3]; NGS fold-enrichment, NHP heart): 3.445 fold; Fold Enrichment relative to AAV9, Liver DNA (NHP) [3, 13]: 1.109 fold; Fold Enrichment relative to AAV9, Liver RNA (NHP) [3, 14]: 0.659 fold; Fold Enrichment relative to AAV9, Muscle (NHP) [3, 15]: 0.869 fold
TTINGSGSPHSKAQNQQT (peptide inserted in AAV capsid)	–	Fold Enrichment relative to AAV9, Brain (Mouse) (brain [2]; [4]): 72.058 fold; Fold Enrichment relative to AAV9, Brain (Mouse) (brain [2]; [11]): 72.058 fold; Fold Enrichment relative to AAV9, Brain (NHP) [3, 12]: 114.856 fold; Fold Enrichment relative to AAV9, DRG (NHP) [3, 5]: 1.340 fold; Fold Enrichment relative to AAV9, DRG (NHP) ([3]; NGS fold-enrichment, NHP DRG): 1.340 fold; Fold Enrichment relative to AAV9, Heart (NHP) ([3]; NGS fold-enrichment, NHP heart): 14.856 fold; Fold Enrichment relative to AAV9, Liver DNA (NHP) [3, 13]: 0.957 fold; Fold Enrichment relative to AAV9, Liver RNA (NHP) [3, 14]: 1.281 fold; Fold Enrichment relative to AAV9, Muscle (NHP) [3, 15]: 0.827 fold; Fold Enrichment relative to AAV9, Brain (NHP) [3, 6]: 114.856 fold; Fold Enrichment relative to AAV9, Heart (NHP) [3, 7]: 14.856 fold; Fold Enrichment relative to AAV9, Liver DNA (NHP) [3, 8]: 0.957 fold; Fold Enrichment relative to AAV9, Liver RNA (NHP) [3, 9]: 1.281 fold; Fold Enrichment relative to AAV9, Muscle (NHP) [3, 10]: 0.827 fold

From US20260250318A1, “COMPOSITIONS AND METHODS FOR CROSSING THE BLOOD BRAIN BARRIER” (VOYAGER THERAPEUTICS, INC., priority 2022, published 2026)
